Results published in PubChem BioAssay AID1963863 (Molecular Pharmacology Branch, DTP, NCI, 2024).

Test system: 931267-113-T-J1-PDC KRAS spheroid with HUVEC/MSC, viability
Assay: Anticancer human tumor 931267-113-T-J1-PDC patient-derived colon adenocarcinoma cell line growth inhibition [KRAS2]
Conditions: for IC50: curve of first compound; for viability, T/C: stronger effect = lower value
In short: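 Combination screen of spheroid viability in tumor-cell co-cultures with endothelial (HUVEC) and mesenchymal stem cell stroma. Each agent was tested in half-log dilutions, topping at clinical Cmax or at 10 microM without a known Cmax.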

[1] = second compound 0.0316 µM, first compound 0.0316 µM
[2] = second compound 0.0316 µM, first compound 0.1 µM
[3] = second compound 0.0316 µM, first compound 0.316 µM
[4] = second compound 0.0316 µM, first compound 1 µM
[5] = second compound 0.0316 µM, first compound 3.16 µM
[6] = second compound 0.0316 µM, first compound 10 µM
[7] = second compound 0.1 µM, first compound 0.0316 µM
[8] = second compound 0.1 µM, first compound 0.1 µM
[9] = second compound 0.1 µM, first compound 0.316 µM
[10] = second compound 0.1 µM, first compound 1 µM
[11] = second compound 0.1 µM, first compound 3.16 µM
[12] = second compound 0.1 µM, first compound 10 µM
[13] = second compound 0.316 µM, first compound 0.0316 µM
[14] = second compound 0.316 µM, first compound 0.1 µM
[15] = second compound 0.316 µM, first compound 0.316 µM
[16] = second compound 0.316 µM, first compound 1 µM
[17] = second compound 0.316 µM, first compound 3.16 µM
[18] = second compound 0.316 µM, first compound 10 µM
[19] = second compound 1 µM, first compound 0.0316 µM
[20] = second compound 1 µM, first compound 0.1 µM
[21] = second compound 1 µM, first compound 0.316 µM
[22] = second compound 1 µM, first compound 1 µM
[23] = second compound 1 µM, first compound 3.16 µM
[24] = second compound 1 µM, first compound 10 µM
[25] = second compound 3.16 µM, first compound 0.0316 µM
[26] = second compound 3.16 µM, first compound 0.1 µM
[27] = second compound 3.16 µM, first compound 0.316 µM
[28] = second compound 3.16 µM, first compound 1 µM
[29] = second compound 3.16 µM, first compound 3.16 µM
[30] = second compound 3.16 µM, first compound 10 µM
[31] = second compound 0.0316 µM, first compound 0.00316 µM
[32] = second compound 0.0316 µM, first compound 0.01 µM
[33] = second compound 0.1 µM, first compound 0.00316 µM
[34] = second compound 0.1 µM, first compound 0.01 µM
[35] = second compound 0.316 µM, first compound 0.00316 µM
[36] = second compound 0.316 µM, first compound 0.01 µM
[37] = second compound 1 µM, first compound 0.00316 µM
[38] = second compound 1 µM, first compound 0.01 µM
[39] = second compound 3.16 µM, first compound 0.00316 µM
[40] = second compound 3.16 µM, first compound 0.01 µM
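Also: compound exposure lasted 7 days before the readout.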
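For viability, T/C in this document: 100% = DMSO vehicle control viability.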

Row | Structure (SMILES) | IC50 (second compound 0.0316 µM) | IC50 (second compound 0.1 µM) | IC50 (second compound 0.316 µM) | IC50 (second compound 1 µM) | IC50 (second compound 3.16 µM) | viability, T/C [1] | viability, T/C [2] | viability, T/C [3] | viability, T/C [4] | viability, T/C [7] | viability, T/C [8] | viability, T/C [9] | viability, T/C [10] | viability, T/C [13] | viability, T/C [14] | viability, T/C [15] | viability, T/C [19] | viability, T/C [20] | viability, T/C [25] | viability, T/C [26] | also measured
1 | CC(C)NCC(C(=O)N1CCN(c2ncnc3c2C(C)CC3O)CC1)c1ccc(Cl)cc1 (stereo not given) + C=CC(=O)N1CCN(c2nc(OCC3CCCN3C)nc3c2CCN(c2cccc4cccc(C)c24)C3)CC1CC#N | > 10 µM | 6.28 µM | 5.1 µM | 1.81 µM | < 0.0316 µM | 111% | 86% | 72.4% | 79.8% | 96.8% | 86.4% | 83.1% | 101% | 100% | 89.6% | 95.4% | 79.4% | 83.1% | 1.12% | 0.47% | viability, T/C [5]: 64.3%; viability, T/C [6]: 50%; viability, T/C [11]: 62.1%; viability, T/C [12]: 41.8%; viability, T/C [16]: 64.7%; viability, T/C [17]: 73%; viability, T/C [18]: 30.4%; viability, T/C [21]: 64.5%; viability, T/C [22]: 60.1%; viability, T/C [23]: 42.2%; viability, T/C [24]: 18.4%; viability, T/C [27]: 0.29%; viability, T/C [28]: 0.37%; viability, T/C [29]: 0.61%; viability, T/C [30]: 0.46%
2 | CCN1CCN(Cc2ccc(Nc3ncc(F)c(-c4cc(F)c5nc(C)n(C(C)C)c5c4)n3)nc2)CC1 + C=CC(=O)N1CCN(c2nc(OCC3CCCN3C)nc3c2CCN(c2cccc4cccc(C)c24)C3)CC1CC#N | > 1 µM | 0.549 µM | > 1 µM | 0.734 µM | < 0.00316 µM | 70.7% | 67.8% | 65.7% | 54% | 68.2% | 67.4% | 61.8% | 39.7% | 64.3% | 60% | 64.6% | 77.3% | 82.4% | 0.2% | 0.23% | viability, T/C [31]: 108%; viability, T/C [32]: 86%; viability, T/C [33]: 83.8%; viability, T/C [34]: 72.2%; viability, T/C [35]: 93.7%; viability, T/C [36]: 84.2%; viability, T/C [16]: 48.6%; viability, T/C [37]: 73.8%; viability, T/C [38]: 74.2%; viability, T/C [21]: 61.2%; viability, T/C [22]: 45.9%; viability, T/C [39]: 0.66%; viability, T/C [40]: 2.55%; viability, T/C [27]: 0.3%; viability, T/C [28]: 0.21%
3 | CCNC(=O)CC1N=C(c2ccc(Cl)cc2)c2cc(OC)ccc2-n2c(C)nnc21 (stereo not given) + C=CC(=O)N1CCN(c2nc(OCC3CCCN3C)nc3c2CCN(c2cccc4cccc(C)c24)C3)CC1CC#N | 3.97 µM | 2.56 µM | 1.43 µM | 1.03 µM | < 0.0316 µM | 92% | 80.3% | 80.2% | 51.9% | 92.5% | 81.4% | 70.1% | 60.6% | 72.4% | 74.7% | 66.5% | 82.1% | 69.1% | 0.31% | 0.3% | viability, T/C [5]: 61%; viability, T/C [6]: 38.1%; viability, T/C [11]: 45.4%; viability, T/C [12]: 41.6%; viability, T/C [16]: 52.9%; viability, T/C [17]: 43.7%; viability, T/C [18]: 38.9%; viability, T/C [21]: 61.1%; viability, T/C [22]: 51.1%; viability, T/C [23]: 39.6%; viability, T/C [24]: 31.5%; viability, T/C [27]: 0.26%; viability, T/C [28]: 0.17%; viability, T/C [29]: 0.16%; viability, T/C [30]: 0.17%
4 | Cn1ncnc1[C@H]1c2n[nH]c(=O)c3cc(F)cc(c23)N[C@@H]1c1ccc(F)cc1 + C=CC(=O)N1CCN(c2nc(OCC3CCCN3C)nc3c2CCN(c2cccc4cccc(C)c24)C3)CC1CC#N | > 0.1 µM | > 0.1 µM | > 0.1 µM | > 0.1 µM | < 0.000316 µM | 77.2% | 80.7% | – | – | 78.2% | 67.3% | – | – | 69.8% | 66.3% | – | 68.8% | 69.9% | 0.64% | 8.16% | viability, T/C (second compound 0.0316 µM, first compound 0.000316 µM): 118%; viability, T/C (second compound 0.0316 µM, first compound 0.001 µM): 89.7%; viability, T/C [31]: 90%; viability, T/C [32]: 75.5%; viability, T/C (second compound 0.1 µM, first compound 0.000316 µM): 102%; viability, T/C (second compound 0.1 µM, first compound 0.001 µM): 90.9%; viability, T/C [33]: 69.8%; viability, T/C [34]: 77.9%; viability, T/C (second compound 0.316 µM, first compound 0.000316 µM): 89.9%; viability, T/C (second compound 0.316 µM, first compound 0.001 µM): 66.3%; viability, T/C [35]: 89.9%; viability, T/C [36]: 86%; viability, T/C (second compound 1 µM, first compound 0.000316 µM): 76%; viability, T/C (second compound 1 µM, first compound 0.001 µM): 76.5%; viability, T/C [37]: 68.5%; viability, T/C [38]: 80.8%; viability, T/C (second compound 3.16 µM, first compound 0.000316 µM): 1.48%; viability, T/C (second compound 3.16 µM, first compound 0.001 µM): 4.65%; viability, T/C [39]: 3.13%; viability, T/C [40]: 15.2%
